Counter-ions that a name gives are not always drawn.
What was measured:
Jak2 (a.a. 828-1132) = molecular target: T1, Jak2 (a.a. 828-1132) (Homo sapiens, UniProt O60674); experiment: In vitro JAK kinase assay (HTRF, phosphorylation of a biotinylated peptide), JAK2, reported as JAK2/JAK1 ratio; type: biochemical
T1 construct: Jak2 (a.a. 828-1132); His tag (N); made in house; host or cells: insect cells (baculovirus)
Description: (§1) Compounds herein were tested for inhibitory activity of JAK targets according to the following in vitro assay described in Park et al., Analytical Biochemistry 1999, 269, 94-104. The catalytic domains of human JAK1 (a.a. 837-1142), Jak2 (a.a. 828-1132) and Jak3 (a.a. 781-1124) with an N-terminal His tag were expressed using baculovirus in insect cells and purified. The catalytic activity of JAK1, JAK2 or JAK3 was assayed by measuring the phosphorylation of a biotinylated peptide. The phosphorylated peptide was detected by homogenous time resolved fluorescence (HTRF). IC50s of compounds were measured for each kinase in the 40 microL reactions that contain the enzyme, ATP and 500 nM peptide in 50 mM Tris (pH 7.8) buffer with 100 mM NaCl, 5 mM DTT, and 0.1 mg/mL (0.01%) BSA. The ATP concentration in the reactions was 90 μM for Jak1, 30 μM for Jak2 and 3 μM for Jak3 for Km conditions. For the 1 mM IC50 measurements, ATP concentration in the reactions was 1 mM. Reactions were carried out at RT for 1 h and then stopped with 20 μL 45 mM EDTA, 300 nM SA-APC, 6 nM Eu-Py20 in assay buffer (Perkin Elmer, Boston, Mass.). Binding to the Europium labeled antibody took place for 40 min and HTRF signal was measured on a Fusion plate reader (Perkin Elmer, Boston, Mass.).
(§2) Compounds herein were tested for inhibitory activity of JAK1 and JAK2 targets according to the assay of Example A (experiments run at Km or 1 mM as indicated). The symbol “+” indicates an IC50<50 nM; the symbol “++” indicates an IC50≧50 and ≦100 nM; and the symbol “+++” indicates an IC50>100 and ≦500 nM.

[1] = molecular target: T2, human JAK1 (a.a. 837-1142) (Homo sapiens, UniProt P23458); experiment: In vitro JAK kinase assay (HTRF, phosphorylation of a biotinylated peptide), JAK1; type: biochemical
T2 construct: human JAK1 (a.a. 837-1142); His tag (N); made in house; host or cells: insect cells (baculovirus)
T2 sequence (P23458 849-1154): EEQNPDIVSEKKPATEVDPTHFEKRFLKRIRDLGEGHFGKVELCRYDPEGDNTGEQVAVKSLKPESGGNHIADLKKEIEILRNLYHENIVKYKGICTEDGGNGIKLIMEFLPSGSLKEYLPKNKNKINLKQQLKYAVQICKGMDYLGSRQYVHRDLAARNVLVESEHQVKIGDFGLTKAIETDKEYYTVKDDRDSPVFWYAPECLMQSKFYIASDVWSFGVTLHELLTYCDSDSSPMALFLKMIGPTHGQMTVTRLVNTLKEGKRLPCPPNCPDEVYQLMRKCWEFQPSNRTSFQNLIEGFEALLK
Description: as §1, §2

[2] = Assay Conditions Km (ATP 90 μM for Jak1, 30 μM for Jak2)
[3] = Assay Conditions Km (ATP 90 μM for Jak1)

T1 sequence (O60674 828-1132): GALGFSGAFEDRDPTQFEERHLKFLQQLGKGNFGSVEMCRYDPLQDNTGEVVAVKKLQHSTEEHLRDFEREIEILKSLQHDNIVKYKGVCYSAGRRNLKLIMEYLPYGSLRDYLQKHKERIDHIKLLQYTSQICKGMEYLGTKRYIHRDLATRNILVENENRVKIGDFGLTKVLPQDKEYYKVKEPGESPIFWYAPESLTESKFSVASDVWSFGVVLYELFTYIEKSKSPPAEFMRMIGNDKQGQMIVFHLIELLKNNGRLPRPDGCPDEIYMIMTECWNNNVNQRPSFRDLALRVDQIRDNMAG

SMILES	JAK2/JAK1 IC50 ratio (Jak2 (a.a. 828-1132); Assay Conditions 1 mM ATP)	IC50 ([1]; Assay Conditions 1 mM ATP) [nM]	JAK2/JAK1 IC50 ratio (Jak2 (a.a. 828-1132); [2])	IC50 [1, 3] [nM]
N#CC[C@@H]([C@H]1CCN(c2ccc(C#N)c(Cl)n2)C1)n1cc(-c2ncnc3[nH]ccc23)cn1 [Example 69, 2-chloro-6-((3S)-3-{(1S)-2-cyano-1-[4-(7H-pyrrolo[2,3-d]pyrimidin-4-yl)-1H-pyrazol-1-yl]ethyl}pyrrolidin-1-yl)nicotinonitrile trifluoroacetate salt]	6.5	< 50	–	–
N#CC[C@@H]([C@H]1CCN(c2nc(F)c(F)cc2F)C1)n1cc(-c2ncnc3[nH]ccc23)cn1 [Example 67, (3S)-3-[4-(7H-pyrrolo[2,3-d]pyrimidin-4-yl)-1H-pyrazol-1-yl]-3-[(3S)-1-(3,5,6-trifluoropyridin-2-yl)pyrrolidin-3-yl]propanenitrile trifluoroacetate salt]	5.6	< 50	–	–
N#CC[C@@H]([C@H]1CCN(c2ncc(Br)s2)C1)n1cc(-c2ncnc3[nH]ccc23)cn1 [Example 47, (3S)-3-[(3S)-1-(5-bromo-1,3-thiazol-2-yl)pyrrolidin-3-yl]-3-[4-(7H-pyrrolo[2,3-d]pyrimidin-4-yl)-1H-pyrazol-1-yl]propanenitrile trifluoroacetate]	6.9	< 50	–	–
N#CCC(C1CCN(c2nc3cccnc3o2)C1)n1ccc(-c2ncnc3[nH]ccc23)c1 (single isomer, unassigned) [Example 33, 3-(1-[1,3]oxazolo[5,4-b]pyridin-2-ylpyrrolidin-3-yl)-3-[3-(7H-pyrrolo[2,3-d]pyrimidin-4-yl)-1H-pyrrol-1-yl]propanenitrile phosphate]	34	< 50	–	–
N#CCC(C1CCN(c2nc3cccnc3o2)C1)n1cc(-c2ncnc3[nH]ccc23)cn1 (single isomer, unassigned) [Example 13a, 3-(1-[1,3]oxazolo[5,4-b]pyridin-2-ylpyrrolidin-3-yl)-3-[4-(7H-pyrrolo[2,3-d]pyrimidin-4-yl)-1H-pyrazol-1-yl]propanenitrile]	–	–	12	< 50
CS(=O)(=O)c1nc(N2CC[C@H](C(CF)n3cc(-c4ncnc5[nH]ccc45)cn3)C2)c(F)cc1F (stereo partly drawn) [Example 132, 4-[1-(1-{(3S)-1-[3,5-difluoro-6-(methylsulfonyl)pyridin-2-yl]pyrrolidin-3-yl}-2-fluoroethyl)-1H-pyrazol-4-yl]-7H-pyrrolo [2,3-d]pyrimidine trifluoroacetate]	8.9	< 50	–	–
N#CC[C@@H]([C@H]1CCN(c2cccnc2C#N)C1)n1cc(-c2ncnc3[nH]ccc23)cn1 [Example 68, 3-((3S)-3-{(1S)-2-cyano-1-[4-(7H-pyrrolo[2,3-d]pyrimidin-4-yl)-1H-pyrazol-1-yl]ethyl}pyrrolidin-1-yl) pyridine-2-carbonitrile trifluoroacetate salt]	8.2	< 50	–	–
N#CC[C@@H]([C@H]1CCN(c2cccc(Br)c2C#N)C1)n1cc(-c2ncnc3[nH]ccc23)cn1 [Example 57, 2-bromo-6-((3S)-3-{(1S)-2-cyano-1-[4-(7H-pyrrolo[2,3-d]pyrimidin-4-yl)-1H-pyrazol-1-yl]ethyl}pyrrolidin-1-yl)benzonitrile trifluoroacetate salt]	37	< 50	–	–
N#CC[C@@H]([C@H]1CCN(c2nc(Cl)c(F)cc2NC=O)C1)n1cc(-c2ncnc3[nH]ccc23)cn1 [Example 92, N-(2-((S)-3-((S)-1-(4-(7H-pyrrolo[2,3-d]pyrimidin-4-yl)-1H-pyrazol-1-yl)-2-cyanoethyl)pyrrolidin-1-yl)-6-chloro-5-fluoropyridin-3-yl)formamide trifluoroacetate]	–	< 50	–	–
N#CC[C@@H]([C@H]1CCN(c2ncc(CC(F)F)nc2C#N)C1)n1cc(-c2ncnc3[nH]ccc23)cn1 [Example 139, 3-((3S)-3-{(1S)-2-cyano-1-[4-(7H-pyrrolo[2,3-d]pyrimidin-4-yl)-1H-pyrazol-1-yl]ethyl}pyrrolidin-1-yl)-6-(2,2-difluoroethyl)pyrazine-2-carbonitrile trifluoroacetate]	–	< 50	–	–

Now from value to compound:

JAK2/JAK1 IC50 ratio (Jak2 (a.a. 828-1132); Assay Conditions 1 mM ATP)	IC50 ([1]; Assay Conditions 1 mM ATP) [nM]	JAK2/JAK1 IC50 ratio (Jak2 (a.a. 828-1132); [2])	IC50 [1, 3] [nM]	SMILES
6	50 to 100	–	–	Cn1cc(Cl)nc(N2CCC(C(CC#N)n3cc(-c4ncnc5[nH]ccc45)cn3)C2)c1=O (racemic) [Example 36, ±3-[1-(6-chloro-4-methyl-3-oxo-3,4-dihydropyrazin-2-yl)pyrrolidin-3-yl]-3-[4-(7H-pyrrolo[2,3-d]pyrimidin-4-yl)-1H-pyrazol-1-yl]propanenitrile trifluoroacetate]
3.3	50 to 100	–	–	N#CCC(C1CCN(c2nccc(C#N)c2Cl)C1)n1cc(-c2ncnc3[nH]ccc23)cn1 (racemic) [Example 38, ±3-chloro-2-(3-{2-cyano-1-[4-(7H-pyrrolo[2,3-d]pyrimidin-4-yl)-1H-pyrazol-1-yl]ethyl}pyrrolidin-1-yl)isonicotinonitrile trifluoroacetate]
13.8	< 50	–	–	N#CCC(C1CCN(c2ccc3c(n2)S(=O)(=O)CC3)C1)n1ccc(-c2ncnc3[nH]ccc23)c1 (single isomer, unassigned) [34, enantiomer 2]
>13.3	< 50	–	–	N#CCC(C1CCN(c2ncc3ccoc3c2C#N)C1)n1cc(-c2ncnc3[nH]ccc23)cn1 (single isomer, unassigned) [Example 169, 6-(3-{2-cyano-1-[4-(7H-pyrrolo[2,3-d]pyrimidin-4-yl)-1H-pyrazol-1-yl]ethyl}pyrrolidin-1-yl)furo[3,2-c]pyridine-7-carbonitrile]
14.5	< 50	–	–	N#CCC(C1CCN(c2scnc2C#N)C1)n1ccc(-c2ncnc3[nH]ccc23)c1 (racemic) [Example 149-rac, 5-(3-{2-cyano-1-[3-(7H-pyrrolo[2,3-d]pyrimidin-4-yl)-1H-pyrrol-1-yl]ethyl}pyrrolidin-1-yl)-1,3-thiazole-4-carbonitrile]
17.9	< 50	–	–	N#CC[C@@H]([C@H]1CCN(c2nc(Cl)ccc2F)C1)n1cc(-c2ncnc3[nH]ccc23)cn1 [Example 94, (3S)-3-[(3S)-1-(6-chloro-3-fluoropyridin-2-yl)pyrrolidin-3-yl]-3-[4-(7H-pyrrolo[2,3-d]pyrimidin-4-yl)-1H-pyrazol-1-yl]propanenitrile trifluoroacetate]
4.7	< 50	–	–	CS(=O)(=O)c1ccnc(N2CC[C@H]([C@H](CC#N)n3cc(-c4ncnc5[nH]ccc45)cn3)C2)c1C#N [Example 128, 2-((3S)-3-{(1S)-2-cyano-1-[4-(7H-pyrrolo[2,3-d]pyrimidin-4-yl)-1H-pyrazol-1-yl]ethyl}pyrrolidin-1-yl)-4-(methylsulfonyl)nicotinonitrile]
6.7	< 50	–	–	CNC(=O)c1cc(N2CCC(C(CC#N)n3cc(-c4ncnc5[nH]ccc45)cn3)C2)ccn1 (single isomer, unassigned) [Example 152, 4-(3-{2-cyano-1-[4-(7H-pyrrolo[2,3-d]pyrimidin-4-yl)-1H-pyrazol-1-yl]ethyl}pyrrolidin-1-yl)-N-methylpyridine-2-carboxamide]
–	–	1.9	< 50	N#CCC(C1CCN(c2nc3cc(Cl)ccc3o2)C1)n1cc(-c2ncnc3[nH]ccc23)cn1 (single isomer, unassigned) [Example 10, 3-[1-(5-chloro-1,3-benzoxazol-2-yl)pyrrolidin-3-yl]-3-[4-(7H-pyrrolo[2,3-d]pyrimidin-4-yl)-1H-pyrazol-1-yl]propanenitrile]

Source: patent US8716303B2, “N-(hetero)aryl-pyrrolidine derivatives of pyrazol-4-yl-pyrrolo[2,3-d]pyrimidines and pyrrol-3-yl-pyrrolo[2,3-d]pyrimidines as janus kinase inhibitors” (Incyte Corporation, priority 2009, dated 2014)
